Seven molecules from patent publication US20130184273A1, “BICYCLIC PYRIMIDINES” (Bayer Intellectual Property GmbH, priority 2010, published 2013) can be followed below.

The subject of test [1] is KPL-4 breast cancer cell line. Put plainly: Tumor cell proliferation assay (CellTiter-Glo). It is filed as cell-based. Conditions: KPL4, 72 h drug exposure. How it is done: Compounds were tested in a cell-based assay that measures the capacity of the compounds to inhibit tumour cell proliferation following a 72 h drug exposure. Cell viability is determined using CellTiter-Glow® (CTG, Promega, cat #G7571/2/3). The CellTiter-Glo® Luminescent Cell Viability Assay is a homogeneous method to determine the number of viable cells in culture. Detection is based on using the luciferase reaction to measure the amount of ATP from viable cells. The amount of ATP in cells correlates with cell viability. Within minutes after a loss of membrane integrity, cells lose the ability to synthesize ATP, and endogenous ATPases destroy any remaining ATP; thus the levels of ATP fall precipitously.
Cells were plated at 3000-5000 cells/well (depending on the cell lines) in 90 μL growth medium on MTPs (Corning; #3603, black plate, clear flat bottom). For each cell line assayed, cells were plated onto a separate plate for determination of […] at t=0 hour and t=72 hour time points. Following overnight incubation at 37° C., chemiluminescence values for the t=0 samples were determined after adding 10 μl medium and 100 μl CTG solution according to manufacture protocol. Plates for the t=72 hour time points were treated with compounds diluted into growth medium at ten times final concentration added in 10 μL to the cell culture plate. Cells were then incubated for 72 hours at 37° C. Chemiluminescence values for the t=72 hour samples were determined. […] Experiments were controlled using a reference compound as standard.

In test [2] the test system is p-AKT S473 in PC3 human prostate tumours. Briefly: In vivo xenograft mechanism of action study. Further details: species or system athymic nude mice. As to conditions: PC3 tumours xenografted onto nude mice, treated once with 50 mg/kg p.o., 5 hours post treatment. From the text:
To this extent PC3 human prostate tumours were xenografted onto athymic nude mice. PC3 tumour cells were cultivated according to ATCC protocols in recommended media contained 10% FCS and harvested for transplantation in a subconfluent (70%) state. 3×10^6 tumour cells suspended in 50% Matrigel were subcutaneously implantated into the inguinal region of male mice. Tumours were allowed to grow to the predetermined size of 60-80 mm^2. When the tumours were approximately in size, the animals were randomized to treatment and control groups (groups size: 9 animals) and treatment was started. Animals were treated once with 50 mg/kg compound or vehicle per oral administration (p.o.) carried out via a gastric tube. Treatment of each animal was based on individual body weight. At 2, 5 and 24 hours post treatment 3 animals each were sacrificed and the PC3 tumours excised. Tumour samples of approximately 5×5×5 mm were lysed on ice in MSD lysis buffer in the presence of protease and phosphatase inhibitors using Tissue Lyzer (Qiagen, Germany). The levels of p-AKT S473 in extracts from tumour tissue were analysed in an ELISA based assay. This assay is based on the “Akt Duplex” of the MULTI-SPOT® Assay System (Fa. Meso Scale Discovery, Cat #N41100B-1) following manufacturers instructions. Each assay used 20 μg of protein extract and measured total AKT and p-AKT content simultaneously in one well. All measurements where at least done in duplicates and confirmed by independent repetition.
Values for P-AKT are expressed as percentage of P-AKT level compared to total-AKT content of the extracts. Vehicle treated tumours were analyzed to determine the basal level of P-AKT in this model and used as a normalization control to determine the % P-AKT relative to vehicle levels.

The test system of test [3] is phospho-AKT at S473 in KPL4 breast tumour cell line. Briefly: Cellular p-AKT1/2/3-S473 assay. Format: cell-based. Conditions: KPL4 cells, treated with compounds for 2 hours; read-out: pAKT-S743 median IC50. How it is done: The molecular mechanism of action was investigated in a set of experiments to assess the inhibition of the PI3K-AKT-mTOR pathway in responsive cell lines such as KPL4 breast tumour cell line (PIK3CAH1047R, HER20/E and hormone independent). The phospho-substrates of PI3K-AKT-mTOR axis were used as the read-outs to reflect pathway inhibition. Cells were seeded at 60-80% confluency per well in 96-well cell culture plates. After overnight incubation at 37° C. 5% CO2, cells were treated with compounds and vehicle at 37° C. for 2 hours. Thereafter, cells were lysed in 150 μl lysis buffer and the levels of phospho-AKT at T308 and S473 and p-4E-BP1 at T70 sites were determined with the corresponding AlphaScreen® SureFire® assay kits (Perkin Elmer: 4E-BP1 Assay Kit Cat # TRG4E2S10K; Akt 1/2/3 p-Ser 473 #TGRA4S500 and Akt 1/2/3 p-Thr 308 #TGRA3S500 as well as IgG detection Kit #6760617M) as described in the manuals. All measurements where at least done in duplicates and confirmed by independent repetition.
Alternatively pAKT-S473 was measured using the “Akt Duplex” of the MULTI-SPOT® Assay System (Fa. Meso Scale Discovery, Cat#N41100B-1) following manufacturers instructions. Each assay used 20 μg of protein extract and measured total AKT and p-AKT content simultaneously in one well. All measurements where at least done in duplicates and confirmed by independent repetition. Values for P-AKT are expressed as percentage of P-AKT level compared to total-AKT content of the extracts.

Molecules are shown by their SMILES. pIC50: −log10 of the molar value.

`Cc1nc2nc(-c3ccc(C4(N)CCC4)cc3)c(-c3ccccc3)cn2n1` [Example 1-0, 1-[4-(2-methyl-6-phenyl-[1,2,4]triazolo[1,5-a]pyrimidin-5-yl)-phenyl]-cyclobutylamine] showed a pIC50 in test [1] of 5.49. In addition, the “P-AKT % relative to control at 5 hours” value in test [2] was found to be 3.2%.
On to `NC1(c2ccc(-c3nc4ncc(-c5ccc(F)cc5)n4cc3-c3ccccc3)cc2)CCC1` [Example 6-0, 1-{4-[3-(4-Fluorophenyl)-6-phenyl-imidazo[1,2-a]pyrimidin-7-yl]-phenyl}-cyclobutylamine], for which the negative logarithm of the IC50 (pIC50) in test [3] is 6.04; in test [1], 5.60.
Turning to `Cn1cc(-c2nc3nc(-c4ccc(C5(N)CCC5)cc4)c(-c4ccccc4)cn3n2)cn1` [Example 5-2, 1-{4-[2-(1-methyl-1H-pyrazol-4-yl)-6-phenyl-[1,2,4]triazolo[1,5-a]pyrimidin-5-yl]-phenyl}-cyclobutylamine], the pIC50 in test [3] was 6.89; in test [1] it was 6.03. Further, the “P-AKT % relative to control at 5 hours” value in test [2] came out at 17.9%.
In the case of `NC(=O)c1cccc(-c2cnc3nc(-c4ccc(C5(N)CCC5)cc4)c(-c4ccccc4)cn23)c1` [Example 6-2, 3-{7-[4-(1-Amino-cyclobutyl)-phenyl]-6-phenyl-imidazo[1,2-a]pyrimidin-3-yl}-benzamide], the pIC50 in test [3] is 5.94; in test [1], 5.00.
In the case of `Cc1cn2cc(-c3ccccc3)c(-c3ccc(C4(N)CCC4)cc3)nc2n1` [Example 2-1, 1-[4-(2-Methyl-6-phenyl-imidazo[1,2-a]pyrimidin-7-yl)-phenyl]-cyclobutylamine], the pIC50 in test [1] is 5.71. In addition, the “P-AKT % relative to control at 5 hours” value in test [2] is recorded as 6.7%.
Regarding `NC1(c2ccc(-c3nc4ncc(-c5cn[nH]c5)n4cc3-c3ccccc3)cc2)CCC1` [Example 6-3, 1-{4-[6-Phenyl-3-(1H-pyrazol-4-yl)-imidazo[1,2-a]pyrimidin-7-yl]-phenyl}-cyclobutylamine], the pIC50 in test [3] was 6.62; in test [1] it was 5.29.
Taken in the same sequence, the figures for `CS(=O)(=O)c1ccc(-c2cnc3nc(-c4ccc(C5(N)CCC5)cc4)c(-c4ccccc4)cn23)cc1` [Example 4-0, 1-{4-[3-(4-Methansulfonyl-phenyl)-6-phenyl-imidazo[1,2-a]pyrimidin-7-yl]-phenyl}-cyclobutylamine] were 6.64 and 5.90.
